For the assay, the system named is B6C3F1 mice, B16 melanoma ip, median survival T/C. The assay can be described thus: NCI In Vivo Anticancer Drug Screen. Data for tumor model B16 Melanoma (intraperitoneal) in B6C3F1 mice. The following applies: endpoint: median survival time, schedule: Q01DX009 (ip), higher = longer survival. A digest of the protocol: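 Readout: survival or tumor size in treated mice relative to vehicle controls (T/C). Model uses transplantable tumors grown in mice.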

[1] abbreviates: dose: 6.25 mg/kg/injection, vehicle: saline with Tween-80.
The mark [2] stands for this setting: dose: 25.0 mg/kg/injection, vehicle: saline with Tween-80.
Setting [3] is: dose: 50.0 mg/kg/injection, vehicle: saline with Tween-80.
The mark [4] stands for this setting: dose: 100.0 mg/kg/injection, vehicle: saline with Tween-80.
Where [5] appears, read: dose: 12.5 mg/kg/injection, vehicle: saline with Tween-80.
[6] abbreviates: dose: 12.5 mg/kg/injection, vehicle: saline.
[7] abbreviates: dose: 25.0 mg/kg/injection, vehicle: saline.
Setting [8] is: dose: 50.0 mg/kg/injection, vehicle: saline.
Setting [9] is: dose: 100.0 mg/kg/injection, vehicle: saline.
Where [10] appears, read: dose: 200.0 mg/kg/injection, vehicle: saline with Tween-80.
Setting [11] is: dose: 200.0 mg/kg/injection, vehicle: saline.
Where [12] appears, read: dose: 400.0 mg/kg/injection, vehicle: saline with Tween-80.
The mark [13] stands for this setting: dose: 1.0 mg/kg/injection, vehicle: saline with Tween-80.

Values joined by “and” are separate entries in the source; they are usually repeats but may differ in a detail not shown here. Equal entries are not always repeated. Toxic doses and inconclusive results are not listed. Where a SMILES comes first, the peptide text is derived from it.

In the case of `CCc1nc(N)nc(N)c1-c1ccc(Cl)c([N+](=O)[O-])c1`, the T/C reads like this: (dose: 1.56 mg/kg/injection, vehicle: saline with Tween-80) 106 % of control; (dose: 3.12 mg/kg/injection, vehicle: saline with Tween-80) 105 % of control; (dose: 3.25 mg/kg/injection, vehicle: saline with Tween-80) 100 % of control; under setting [1], 111 % of control; (dose: 7.5 mg/kg/injection, vehicle: saline with Tween-80) 101 % of control; (dose: 15.0 mg/kg/injection, vehicle: saline with Tween-80) 103 % of control. Besides, the T/C was 104 % of control (dose: 30.0 mg/kg/injection, vehicle: saline with Tween-80) and 114 % of control (dose: 60.0 mg/kg/injection, vehicle: saline with Tween-80).

For the compound `O=C(c1cccnc1)c1cc(-c2ccccn2)c(=O)n2ccccc12`, the T/C runs as follows: under setting [2], 96 % of control; under setting [3], 98 % of control; under setting [4], 89 % of control.

In the case of `Nc1nc2nc[nH]c2c(=O)[nH]1`, the T/C is, setting by setting: under setting [1], 116 % of control; under setting [5], 105 % of control; under setting [2], 104 % of control; under setting [3], 102 % of control; under setting [4], 90 % of control.

As for `CC1(C)OC1CS(=O)c1ccccc1` (centres undefined), the T/C reads like this: under setting [5], 96 % of control; under setting [6], 93 % of control; under setting [2], 99 % of control; under setting [7], 98 % of control; under setting [3], 102 % of control; under setting [8], 96 % of control. Further, the T/C runs as follows: under setting [4], 95 % of control; under setting [9], 98 % of control; under setting [10], 90 % of control; under setting [11], 98 % of control; under setting [12], 89 % of control; (dose: 400.0 mg/kg/injection, vehicle: saline) 93 % of control.

As for `CC(C)C(NC(=O)C(F)(F)F)C(=O)O` (centres undefined), the T/C is, setting by setting: under setting [8], 96 % of control; under setting [9], 89 % of control.

As to `CC(=O)Oc1ccc2c3c1O[C@H]1[C@@H](OC(C)=O)C=C[C@H]4[C@@H](C2)N(C)CC[C@@]341`, the T/C is, setting by setting: (dose: 0.5 mg/kg/injection, vehicle: saline) 101 % of control; (dose: 1.0 mg/kg/injection, vehicle: saline) 93 % of control; (dose: 2.0 mg/kg/injection, vehicle: saline) 90 % of control; (dose: 4.0 mg/kg/injection, vehicle: saline) 100 % of control; (dose: 8.0 mg/kg/injection, vehicle: saline) 98 % of control; (dose: 16.0 mg/kg/injection, vehicle: saline) 86 % of control. Moreover, the T/C is 93 % of control (dose: 32.0 mg/kg/injection, vehicle: saline); 102 % of control (dose: 64.0 mg/kg/injection, vehicle: saline); 110 % of control (dose: 128.0 mg/kg/injection, vehicle: saline).

In the case of `Cc1c2ccncc2c(COC2OC(CO)C(O)C2O)c2c3ccccc3n(C)c12` (centres undefined), the T/C was 123 % of control under setting [6], 98 % of control under setting [9] and 121 % of control under setting [11].

Consider `COC(=O)C(Cc1ccc(O)cc1)NC(=O)C(Cc1ccccc1)NC(C)=O` (stereo not drawn) (Ac-Phe-Tyr-OMe; configuration not given here), for which the T/C is, setting by setting: (dose: 25.0 mg/kg/injection, vehicle: Klucel (hydroxypropylcellulose) (HPC)) 92 % of control; (dose: 50.0 mg/kg/injection, vehicle: Klucel (hydroxypropylcellulose) (HPC)) 92 % of control; (dose: 100.0 mg/kg/injection, vehicle: Klucel (hydroxypropylcellulose) (HPC)) 92 % of control; (dose: 200.0 mg/kg/injection, vehicle: Klucel (hydroxypropylcellulose) (HPC)) 86 % of control.

`C=C1[C@@H](O)[C@]2(O)OC[C@@]34[C@H]1[C@@H](OC(=O)C(C)CC)C(=O)O[C@@H]3C[C@H]1C(C)=CC(=O)[C@@H](O)[C@]1(C)[C@@H]24` (some centres undefined): the T/C was 175 % of control under setting [13]; 165 % of control (dose: 2.0 mg/kg/injection, vehicle: saline with Tween-80); 175 % of control (dose: 4.0 mg/kg/injection, vehicle: saline with Tween-80); 165 % of control (dose: 8.0 mg/kg/injection, vehicle: saline with Tween-80); 180 % of control (dose: 16.0 mg/kg/injection, vehicle: saline with Tween-80).

With `BrC1CC(Br)c2c1c1c(c3c2C(Br)CC3Br)C(Br)CC1Br` (centres undefined), the T/C under setting [5] was 108 % of control and 105 % of control; the T/C under setting [2] was 114 % of control and 117 % of control and 123 % of control; the T/C under setting [3] was 114 % of control; the T/C under setting [4] is 118 % of control and 93 % of control; the T/C under setting [10] was 123 % of control.

Turning to `CCOC(=O)C(C)(C)Oc1ccc(Cl)cc1`, the T/C under setting [5] was 93 % of control and 105 % of control; the T/C under setting [2] was 93 % of control and 102 % of control; the T/C under setting [3] is 93 % of control and 101 % of control; the T/C under setting [4] was 102 % of control and 104 % of control; the T/C under setting [10] was 90 % of control.

Regarding `O=C1c2ccccc2C(=O)c2c(NCCNCCO)ccc(O)c21`, the T/C was 118 % of control (dose: 2.5 mg/kg/injection, vehicle: suspension in saline); 153 % of control (dose: 20.0 mg/kg/injection, vehicle: suspension in saline); 184 % of control (dose: 40.0 mg/kg/injection, vehicle: suspension in saline); 190 % of control (dose: 80.0 mg/kg/injection, vehicle: suspension in saline).

On to `COC(C(=O)C(O)C(C)O)C1Cc2cc3cc(OC4CC(OC(C)=O)C(OC5CC(O)C(OC)C(C)O5)C(C)O4)cc(O)c3c(O)c2C(=O)C1OC1CC(OC2CC(OC3CC(C)(O)C(OC(=O)C(C)C)C(C)O3)C(O)C(C)O2)C(O)C(C)O1` (centres undefined), for which the T/C reads like this: (dose: 0.5 mg/kg/injection, vehicle: saline with Tween-80) 158 % of control; under setting [13], 170 % of control.

On to `CC(=O)Nc1cscc1NC(C)=O`, for which the T/C is, setting by setting: under setting [2], 94 % of control and 102 % of control; under setting [3], 111 % of control and 100 % of control; under setting [4], 94 % of control; under setting [10], 108 % of control and 99 % of control; under setting [12], 96 % of control and 104 % of control.

Turning to `S=C(S)N1CCCNCC1` (tested in a mixture with another compound), the T/C is 107 % of control under setting [5], 100 % of control under setting [2] and 92 % of control under setting [3].

On to `O=C(O)COc1ccc(-c2ccc(Br)cc2)cc1`, for which the T/C is, setting by setting: under setting [2], 95 % of control; under setting [3], 98 % of control; under setting [4], 87 % of control; under setting [10], 96 % of control; under setting [12], 94 % of control.

Turning to `Cc1cn(C2CC3[O][Sn]([c]4ccccc4)([c]4ccccc4)[O]CC3O2)c(=O)[nH]c1=O` (centres undefined), the T/C is 102 % of control (dose: 25.0 mg/kg/injection, vehicle: suspension in saline); 103 % of control (dose: 50.0 mg/kg/injection, vehicle: suspension in saline); 113 % of control (dose: 100.0 mg/kg/injection, vehicle: suspension in saline); 93 % of control (dose: 200.0 mg/kg/injection, vehicle: suspension in saline).

For `O=C1C(CO)=C[C@@H](O)[C@H]2O[C@@H]12`, the T/C (dose: 3.12 mg/kg/injection, vehicle: saline) is 88 % of control; the T/C (dose: 6.25 mg/kg/injection, vehicle: saline) was 98 % of control; the T/C under setting [6] is 100 % of control; the T/C under setting [7] is 96 % of control; the T/C under setting [8] was 106 % of control.

As for `O=C1OC(=O)[C@H]2[C@@H]1[C@H]1C=C[C@@H]2OC1=O`, the T/C under setting [6] is 102 % of control; the T/C under setting [7] was 101 % of control; the T/C under setting [8] is 106 % of control; the T/C under setting [9] is 102 % of control; the T/C under setting [11] is 99 % of control.

These data come from PubChem BioAssay AID200 (DTP/NCI, 2004).
